The values that follow come from US10208082B2, “Sustained-release pharmaceutical composition for treatment and prevention of eye disease” (Daiichi Sankyo Company, Limited, priority 2014, dated 2019).

In one data set the test system is NQO1. Description: NQO1 assay in Hepa1c1c7 cells. The format is cell-based, mouse. The following applies: approximately 48 hours culture, mean of 3 wells. The protocol:
Hepa1c1c7 cells (mouse hepatic cell line, ATCC, catalog No. CRL-2026) were cultured (5% CO2, 37° C.). A DMEM (Life Technologies Japan Ltd., catalog No. 11965-092) medium also containing 10% inactivated FBS was used. The medium contained 100 units/mL (final concentration) penicillin and […] (final concentration) streptomycin. The NQO1 assay was conducted according to previous reports (Anal Biochem 1998; 169: 328; and Methods Enzymol 2004; 382: 243).
The Hepa1c1c7 cells were seeded at 10000 cells/well in a 96-well plate. Approximately 24 hours later, the medium was replaced with a medium containing terpenoid derivative (III), terpenoid derivative (I), or terpenoid derivative (II), and the culture was further performed for approximately 48 hours. A lysis solution (a solution containing 2 mM EDTA and 0.8% digitonin), a reaction solution (a solution containing 0.025 M of tris-HCl, 0.067% of albumin, 0.01% of Tween-20, 2 U/mL of glucose-6-phosphate dehydrogenase, 5 μM of flavin adenine dinucleotide, 1 […], 30 μM of nicotinamide adenine dinucleotide phosphate, 0.03% of 3-(4, 5-dimethyl-2-thiazolyl)-2,5-diphenyltetrazolium bromide (MTT), and 50 μM of menadione), and a stop solution (a solution containing 0.3 mM dicumarol and 5 mM potassium dihydrogen phosphate, pH 7.4) were prepared. After removal of the medium, 50 μL of the lysis solution was added thereto, and the mixture was left standing at 37° C. for 10 minutes. The reaction mixture was further shaken at room temperature for 10 minutes.
Two hundred uL of the solution was added thereto, and the mixture was left standing at room temperature for 5 minutes. Fifty μL of the stop solution was added thereto, and the absorbance at 490 nm was measured.
The test results were analyzed using Prism (GraphPad Software, Inc., Ver. 5) to calculate the CD value (concentration of double NQO1 activity) of the concentration at which the activity of NQO1 was increased 2-fold. Each group consisted of 3 wells and indicated as a mean of CD values. […]

Data set [1] in a line: Pharmacokinetic test of microspheres containing terpenoid derivative (III) in rabbit eye. It is filed as in vivo. The following applies: male, Kbl:NZW (white rabbit), intravitreal fluid, other: intravitreal, mean of 4 eyes and SD. Here is the method:
Suspensions were prepared using each of terpenoid derivative (III) of the present invention, terpenoid derivative (III) of the present invention-PLA-0005 [prepared by using PLA-0005 as the base material and adjusting the mixing ratio of terpenoid derivative (III) of the present invention and PLA-0005 to 1:9], and terpenoid derivative (III) of the present invention-PLA-0020 [prepared by using PLA-0020 as the base material and adjusting the mixing ratio of terpenoid derivative (III) of the present invention and PLA-0020 to 1:9], and saline as a solvent such that the concentration of terpenoid derivative (III) was 3 mM.
50 μL each of the suspensions was intravitreally administered to each white rabbit (Oriental Yeast Co., Ltd., Kbl:NZW, male, 8 weeks old). After the intravitreal administration, the rabbit was euthanized, and the intravitreal fluid and the retina were sampled. The concentration of terpenoid derivative (III) contained in these samples was measured. The numeric values shown in Table 12 below are indicated by a mean from 4 eyes and standard deviation. The drug concentration in each tissue was measured by LC/MS/MS. The tissue was pretreated by dilution with purified water in an amount corresponding to 10 times the weight of the tissue and subsequent homogenization to obtain a measurement sample. A water/acetonitrile (1:1) solution containing an internal standard solution (IS; niflumic acid) was added to the obtained sample to extract the drug. Then, the solution was filtered through a filter and injected to LC/MS/MS.
The LC/MS/MS conditions were as follows: • <UPLC conditions>: Waters Acquity UPLC • analysis column: ACQUITY UPLC BEH C18 1.7 μm • column temperature: 50° C. • mobile phase A: 95% acetonitrile (5 mM ammonium acetate) • mobile phase B: 5% acetonitrile (5 mM ammonium acetate).
• <MS/MS conditions>: analysis apparatus API4000 • Ionization mode: ESI • Ion polarity mode: Positive • Monitor Ion • terpenoid derivative (III) (Precursor ion (m/z): 538.5, Product ion (m/z): 460) • IS (Precursor ion (m/z): 283.2, Product ion (m/z): 265).

Regarding `COC(=O)[C@@]12CC[C@]3(C)[C@H](C(=O)C=C4[C@@]5(C)C=C(C#N)C(=O)C(C)(C)[C@@H]5CC[C@]43C)[C@@H]1CC(C)(C)[C@@H](O)C2` [terpenoid derivative (I)], in the data set with NQO1, the “CD value (concentration of double NQO1 activity)” value (from here on “CD value”) is 0.3 nM.
With `COC(=O)[C@@]12CC[C@]3(C)[C@H](C(=O)C=C4[C@@]5(C)[C@H]6O[C@@]6(C#N)C(=O)C(C)(C)[C@@H]5CC[C@]43C)[C@@H]1CC(C)(C)[C@H](O)C2` [terpenoid derivative (II)], in the data set on NQO1, the “CD value” value is reported as 0.1 nM.
`COC(=O)[C@@]12CC[C@]3(C)[C@H](C(=O)C=C4[C@@]5(C)[C@H]6O[C@@]6(C#N)C(=O)C(C)(C)[C@@H]5CC[C@]43C)[C@@H]1CC(C)(C)[C@@H](O)C2` [terpenoid derivative (III)]: the “CD value” value with NQO1 is 1.0 nM. This compound also registered a concentration at 1 day in data set [1] (Day 1, intravitreal 50 μL of 3 mM suspension) of 79700 ± 22100 nM. In addition, the concentration at 2 day in data set [1] (Day 2, intravitreal 50 μL of 3 mM suspension) worked out at 0.1 nM. In addition, the concentration at 7 day in data set [1] (Day 7, intravitreal 50 μL of 3 mM suspension) worked out at 0.1 nM.
